Source: patent publication US20100040566A1, “EMULSION” (Riemann Trading ApS, priority 2006, published 2010)

Test: Determination of photo stability (Xenon arc lamp irradiation, HPLC of UV-filters)
Format: physicochemical
Conditions: for photo stability (in words): 3 MED/2 h irradiation; for Content of UV-Filter Substances, After irradiation [3MED/2 h], Found [%]: Xenon arc lamp, 3 MED after two hours, HPLC; for Content of UV-Filter Substances, Before irradiation, Found [%]: in sample prepared as in Example 1, HPLC; for Content of UV-Filter Substances, After irradiation [3MED/2 h], [%] rel.: relative to content before irradiation
Text: The test sample are weighed and distributed evenly and homogeneously with a brush onto the marked area of a glass plate.
For the Irradiation we use a Xenon arc lamp because the continuous spectrum in the UV-region is near—identical to that of—natural light. The lamp is turned on approximately one hour before Irradiation.
The glass plate Is positioned under the lamp so that the square with the test sample is maximally illuminated.
The distance (lamp-glass plate) is acquired with the aid of a calibrated hand radiometer (PMA 2100) with UV-B detector. The radiant Intensity of the lamp on the sample is set up so that an Irradiation dose of 3 MED (Minimal Erythemal Dose) is given after two hours.
In order to ascertain to which extent each of the Individual UV-filters in the tested formulations has been photometrically degraded, they are analytically quantified before and after irradiation.
The instrumental-analytical method used is HPLC
Sample is prepared as described in Example 1

photo stability (in words) | Content of UV-Filter Substances, After irradiation [3MED/2 h], Found [%] | Content of UV-Filter Substances, Before irradiation, Found [%] | Content of UV-Filter Substances, After irradiation [3MED/2 h], [%] rel. [%] | SMILES
very good value of photo stability | 1.21 | 1.29 | 93.8 | CCCCCCOC(=O)c1ccccc1C(=O)c1ccc(N(CC)CC)cc1O [Diethylamino Hydroxybenzoyl Hexyl Benzoate]
relatively strong degradation | – | – | – | CCCCC(CC)COC(=O)C=Cc1ccc(OC)cc1 (stereo not drawn) [Ethylhexyl Methoxycinnamate]
very good value of photo stability | 9.35 | 9.98 | 93.7 | CCCCC(CC)COC(=O)C(C#N)=C(c1ccccc1)c1ccccc1 (stereo not drawn) [Octocrylene]
